Key:
[1] = molecular target: recombinant human PDE5 (Homo sapiens, UniProt O76074); test: Inhibitory effect on cGMP-PDE (PDE5 IC50), one-step assay adapted from Wells et al.; type: biochemical; settings: 0.15 μM 8-[H3]-cGMP, 30 minutes incubation, 2% DMSO
Description: The compounds of structural formula (I) were tested for an ability to inhibit PDE5. The ability of a compound to inhibit PDE5 activity is related to the IC50 value for the compound, i.e., the concentration of inhibitor required for 50% inhibition of enzyme activity. The IC50 value for compounds of structural formula (I) were determined using recombinant human PDE5.
(§1) cGMP-PDE activity of compounds of the present invention was measured using a one-step assay adapted from Wells et al., Biochim. Biophys. Acta, 384, 430 (1975). The reaction medium contained 50 mM Tris-HCl, pH 7.5, 5 mM magnesium acetate, 250 μg/ml 5′-Nucleotidase,1 mM ECTA, and 0.15 μM 8-[H^3]-cGMP. Unless otherwise indicated, the enzyme used was a human recombinant PDE5 (ICOS Corp., Bothell, Wash.).
(§2) Compounds of the invention were dissolved in DMSO finally present at 2% in the assay.

[2] = molecular target: T1, PDE5 (bovine aorta) (Bos taurus, UniProt Q28156); test: Inhibitory effect on cGMP-PDE (PDE5 IC50), bovine aorta enzyme; type: biochemical; settings: enzyme marked (bovine aorta) in the cell
T1 construct: from tissue; host or cells: bovine aorta
Description: as §1, §2

IC50 [1] [nM] | melting point [°C] | IC50 [2] [nM] | Structure (SMILES)
1 | – | – | Cc1c([C@@H]2c3[nH]c4ccccc4c3C[C@@H]3C(=O)N(C)CC(=O)N23)sc2ccccc12 [Example 8]
4800 | – | – | CC(C)C[C@H]1c2[nH]c3ccccc3c2C[C@H]2C(=O)N(C)CC(=O)N21 (racemic) [Example 19, (+−,cis)-6-Isobutyl-2-methyl-2,3,6,7,12,12a-hexa-hydropyrazino[1′2′:1,6]pyrido[3,4-b]indole-1,4-dione]
40 | – | – | Cc1c([C@@H]2c3[nH]c4ccccc4c3C[C@H]3C(=O)N(C)CC(=O)N23)sc2ccccc12 [Example 6]
195 | 180 to 185 | – | COCOC[C@@H]1c2[nH]c3ccccc3c2C[C@@H]2C(=O)N(C)CC(=O)N21 [Example 18, (6S,12aR)-Methoxymethoxymethyl-2-methyl-2,3,6,7,12,12a-hexahydropyrazino-[1′,2′:1,6]pyrido[3,4-b]indole-1,4-dione]
1570 | – | – | Cc1c([C@H]2c3[nH]c4ccccc4c3C[C@@H]3C(=O)N(C)CC(=O)N23)sc2ccccc12 [Example 7, (6R,12aR)-2-methyl-6-(3-methylbenzo[b]thiophen-2-yl)-2,3,6,7,12,12a-hexahydropyrazino[1′2′:1,6]-pyrido[3,4-b]indole-1,4-dione]
560 | – | – | CN1CC(=O)N2[C@@H](C3CC=CCC3)c3[nH]c4ccccc4c3C[C@H]2C1=O (stereo partly drawn) [Example 21, (+−, cis)-6-Cyclohex-3-enyl-2-methyl-2,3,6,7,12,12a-hexahydropyrazino[1′2′:1,6]pyrido[3,4-b]indole-1,4-dione]
12 | – | – | CN1CC(=O)N2[C@H](c3cc4ccoc4s3)c3[nH]c4ccccc4c3C[C@@H]2C1=O [Example 9]
8730 | 195 to 198 | – | CN1CC(=O)N2[C@H](c3cc4ccccc4o3)c3[nH]c4ccccc4c3C[C@H]2C1=O [Example 2]
880 | – | – | CN1CC(=O)N2[C@@H](c3cc4ccccc4o3)c3[nH]c4ccccc4c3C[C@@H]2C1=O [Example 4]
23000 | – | – | CN1CC(=O)N2[C@H](Cc3c([nH]c4ccccc34)[C@H]2CO)C1=O [Example 17, (6S,12aR)-6-Hydroxymethyl-2-methyl-2,3,6,7,12,12a-hexahydropyrazino-[1′2′:1,6]pyrido[3,4-b]indole-1,4-dione]
1500 | 181 to 187 | – | CN1CC(=O)N2[C@H](Cc3c([nH]c4ccccc34)[C@H]2COCc2ccccc2)C1=O [Example 16, (6S,12aR)-6-Benzyloxymethyl-2-methyl-2,3,6,7,12,12a-hexahydropyrazino[1′2′:1,6]pyrido-[3,4-b]indole-1,4-dione]
25 | 230 to 234 | – | Cc1c([C@H]2c3[nH]c4ccccc4c3C[C@H]3C(=O)N(C)CC(=O)N23)sc2ccccc12 [Example 5, (6R,12aS)-2-methyl-6-(e-methyl-benzo[b]thiophen-2-yl)-2,3,6,7,12,12a-hexahydro-pyrazino[1′,2′:1,6]pyrido[3,4-b]indole-1,4-dione]
130 | – | – | CN1CC(=O)N2[C@@H](c3cc4ccccc4o3)c3[nH]c4ccccc4c3C[C@H]2C1=O [Example 1, (6R,12aS)-6-benzofuran-2-yl-2-methyl-2,3,6,7,12,12a-hexahydro-pyrazino [1′,2′:1,6]pyrido[3,4-b]indole-1,4-dione]
– | – | 230 | CN1CC(=O)N2[C@@H](C3CCCCC3)c3[nH]c4ccccc4c3C[C@H]2C1=O (racemic) [Example 20, (+−, cis)-6-Cyclohexyl-2-methyl-2,3,6,7,12,12a-hexa-hydropyrazino[1′2′:1,6]pyrido[3,4-b]indole,1,4-dione]
16 | 265 to 268 | – | CN1CC(=O)N2[C@H](c3cc4ccccc4o3)c3[nH]c4ccccc4c3C[C@@H]2C1=O [Example 3, (6S,12aR)-6-benzofuran-2-yl-2-methyl-2,3,6,7,12,12a-hexahydropyrazino[1′,2′:1,6]-pyrido[3,4-b]indole-1,4-dione]
333 | – | – | COC[C@@H]1c2[nH]c3ccccc3c2C[C@@H]2C(=O)N(C)CC(=O)N21 [Example 15]
